Results published in ChEMBL document CHEMBL1153634, “Synthesis of novel triterpenoid (lupeol) derivatives and their in vivo antihyperglycemic and antidyslipidemic activity” (2009).
Active and inactive are the calls of the source. The rule behind the calls is not given here.

Assays:
Rattus norvegicus [1] = assay: Antihyperglycemic activity in sucrose challenged albino Sprague-Dawley rat STZ-S model assessed as decrease in blood glucose level at 100 mg/kg, po preincubated 30 min before sucrose challenge measured 24 hrs after last dose; assay type: functional; design: scale not given: the % may be the effect or the level left
Rattus norvegicus [2] = assay: Antihyperglycemic activity in sucrose challenged albino Sprague-Dawley rat STZ-S model assessed as decrease in blood glucose level at 100 mg/kg, po preincubated 30 min before sucrose challenge measured 5 hrs after last dose; assay type: functional; design: scale not given: the % may be the effect or the level left
Syrian golden hamster [3] = assay: Antidyslipidemic activity in high fat diet fed dyslipidemic golden Syrian hamster model assessed as change in plasma cholesterol level at 100 mg/kg, po administered once daily from day 4 to day 10 measured on day 10 after 2 hrs of last dose relative to baseline; assay type: functional, Mesocricetus auratus
Syrian golden hamster [4] = assay: Antidyslipidemic activity in high fat diet fed dyslipidemic golden Syrian hamster model assessed as change in plasma triglyceride level at 100 mg/kg, po administered once daily from day 4 to day 10 measured on day 10 after 2 hrs of last dose relative to baseline; assay type: functional, Mesocricetus auratus
Syrian golden hamster [5] = assay: Antidyslipidemic activity in high fat diet fed dyslipidemic golden Syrian hamster model assessed as change in plasma glycerol level at 100 mg/kg, po administered once daily from day 4 to day 10 measured on day 10 after 2 hrs of last dose relative to baseline; assay type: functional, Mesocricetus auratus
Syrian golden hamster [6] = assay: Antidyslipidemic activity in high fat diet fed dyslipidemic golden Syrian hamster model assessed as change in plasma free fatty acid level at 100 mg/kg, po administered once daily from day 4 to day 10 measured on day 10 after 2 hrs of last dose relative to baseline; assay type: functional, Mesocricetus auratus
Syrian golden hamster [7] = assay: Antidyslipidemic activity in high fat diet fed dyslipidemic golden Syrian hamster model assessed as change in plasma HDL to cholesterol ratio at 100 mg/kg, po administered once daily from day 4 to day 10 measured on day 10 after 2 hrs of last dose relative to baseline; assay type: functional, Mesocricetus auratus
Syrian golden hamster [8] = assay: Antidyslipidemic activity in high fat diet fed dyslipidemic golden Syrian hamster model assessed as change in plasma HDL-cholesterol level at 100 mg/kg, po administered once daily from day 4 to day 10 measured on day 10 after 2 hrs of last dose relative to baseline; assay type: functional, Mesocricetus auratus
Syrian golden hamster [9] = assay: Antidyslipidemic activity in high fat diet fed dyslipidemic golden Syrian hamster model assessed as change in plasma glycerol level at 108 mg/kg, po administered once daily from day 4 to day 10 measured on day 10 after 2 hrs of last dose; assay type: functional, Mesocricetus auratus
Syrian golden hamster [10] = assay: Antidyslipidemic activity in high fat diet fed dyslipidemic golden Syrian hamster model assessed as change in plasma cholesterol level at 108 mg/kg, po administered once daily from day 4 to day 10 measured on day 10 after 2 hrs of last dose; assay type: functional, Mesocricetus auratus
Syrian golden hamster [11] = assay: Antidyslipidemic activity in high fat diet fed dyslipidemic golden Syrian hamster model assessed as change in plasma HDL to cholesterol ratio at 108 mg/kg, po administered once daily from day 4 to day 10 measured on day 10 after 2 hrs of last dose; assay type: functional, Mesocricetus auratus
Syrian golden hamster [12] = assay: Antidyslipidemic activity in high fat diet fed dyslipidemic golden Syrian hamster model assessed as change in plasma HDL-cholesterol level at 108 mg/kg, po administered once daily from day 4 to day 10 measured on day 10 after 2 hrs of last dose; assay type: functional, organism-based; design: dose 108 mg/kg; settings: Mesocricetus auratus
Syrian golden hamster [13] = assay: Antidyslipidemic activity in high fat diet fed dyslipidemic golden Syrian hamster model assessed as change in plasma triglyceride level at 108 mg/kg, po administered once daily from day 4 to day 10 measured on day 10 after 2 hrs of last dose; assay type: functional, Mesocricetus auratus
Syrian golden hamster [14] = assay: Antidyslipidemic activity in high fat diet fed dyslipidemic golden Syrian hamster model assessed as change in plasma triglyceride level at 50 mg/kg, po administered once daily from day 4 to day 10 measured on day 10 after 2 hrs of last dose relative to baseline; assay type: functional, Mesocricetus auratus
Syrian golden hamster [15] = assay: Antidyslipidemic activity in high fat diet fed dyslipidemic golden Syrian hamster model assessed as change in plasma HDL to cholesterol ratio at 50 mg/kg, po administered once daily from day 4 to day 10 measured on day 10 after 2 hrs of last dose relative to baseline; assay type: functional, Mesocricetus auratus
Syrian golden hamster [16] = assay: Antidyslipidemic activity in high fat diet fed dyslipidemic golden Syrian hamster model assessed as change in plasma cholesterol level at 50 mg/kg, po administered once daily from day 4 to day 10 measured on day 10 after 2 hrs of last dose relative to baseline; assay type: functional, Mesocricetus auratus
Syrian golden hamster [17] = assay: Antidyslipidemic activity in high fat diet fed dyslipidemic golden Syrian hamster model assessed as change in plasma […] level at 50 mg/kg, po administered once daily from day 4 to day 10 measured on day 10 after 2 hrs of last dose relative to baseline; assay type: functional, Mesocricetus auratus
Syrian golden hamster [18] = assay: Antidyslipidemic activity in high fat diet fed dyslipidemic golden Syrian hamster model assessed as change in plasma glycerol level at 50 mg/kg, po administered once daily from day 4 to day 10 measured on day 10 after 2 hrs of last dose relative to baseline; assay type: functional, Mesocricetus auratus
Syrian golden hamster [19] = assay: Antidyslipidemic activity in high fat diet fed dyslipidemic golden Syrian hamster model assessed as change in plasma HDL-cholesterol level at 50 mg/kg, po administered once daily from day 4 to day 10 measured on day 10 after 2 hrs of last dose relative to baseline; assay type: functional, Mesocricetus auratus
Syrian golden hamster [20] = assay: Antidyslipidemic activity in high fat diet fed dyslipidemic golden Syrian hamster model assessed as change in food intake at 50 mg/kg, po administered once daily from day 4 to day 10 measured on day 10 after 2 hrs of last dose relative to baseline; assay type: functional, Mesocricetus auratus

| SMILES | Activity (Rattus norvegicus [1]) | Activity (Rattus norvegicus [2]) | Activity (Syrian golden hamster [14]) | Activity (Syrian golden hamster [15]) | Activity (Syrian golden hamster [16]) | Activity (Syrian golden hamster [17]) | Activity (Syrian golden hamster [18]) | Activity (Syrian golden hamster [19]) | Activity (Syrian golden hamster [20]) | further results |
| --- | --- | --- | --- | --- | --- | --- | --- | --- | --- | --- |
| C=C(C)[C@@H]1CC[C@]2(C)CC[C@]3(C)[C@H](CC[C@@H]4[C@@]5(C)CC[C@H](OC(=O)/C=C/c6cccs6)C(C)(C)[C@@H]5CC[C@]43C)[C@@H]12 | -14.9% | -12.5% |  |  |  |  |  |  |  |  |
| C=C(C)[C@@H]1CC[C@]2(C)CC[C@]3(C)[C@H](CC[C@@H]4[C@@]5(C)CC[C@H](OC(=O)CCc6cccnc6)C(C)(C)[C@@H]5CC[C@]43C)[C@@H]12 | -10.4% | -8.21% |  |  |  |  |  |  |  |  |
| C=C(C)[C@@H]1CC[C@]2(C)CC[C@]3(C)[C@H](CC[C@@H]4[C@@]5(C)CC[C@H](O)C(C)(C)[C@@H]5CC[C@]43C)[C@@H]12 [LUPEOL] |  |  |  |  |  |  |  |  |  | Activity (Syrian golden hamster [3]): -9%; Activity (Syrian golden hamster [4]): -26%; Activity (Syrian golden hamster [5]): -10%; Activity (Syrian golden hamster [6]): -23%; Activity (Syrian golden hamster [7]): 63%; Activity (Syrian golden hamster [8]): 44% |
| C=C(C)[C@@H]1CC[C@]2(C)CC[C@]3(C)[C@H](CC[C@@H]4[C@@]5(C)CC[C@H](OC(=O)/C=C/c6ccco6)C(C)(C)[C@@H]5CC[C@]43C)[C@@H]12 | -18.5% | -15.8% |  |  |  |  |  |  |  |  |
| CC(C)OC(=O)C(C)(C)Oc1ccc(C(=O)c2ccc(Cl)cc2)cc1 [FENOFIBRATE] |  |  |  |  |  |  |  |  |  | Activity (Syrian golden hamster [9]): -36%; Activity (Syrian golden hamster [10]): -18%; Activity (Syrian golden hamster [11]): 10%; Activity (Syrian golden hamster [12]): inactive; Activity (Syrian golden hamster [13]): -42% |
| C=C(C)[C@@H]1CC[C@]2(C)CC[C@]3(C)[C@H](CC[C@@H]4[C@@]5(C)CC[C@H](OC(=O)/C=C/c6cccnc6)C(C)(C)[C@@H]5CC[C@]43C)[C@@H]12 | -15.7% | -13.4% |  |  |  |  |  |  |  |  |
| C=C(C)[C@@H]1CC[C@]2(C)CC[C@]3(C)[C@H](CC[C@@H]4[C@@]5(C)CC[C@H](OC(=O)c6cccnc6)C(C)(C)[C@@H]5CC[C@]43C)[C@@H]12 | -25% | -18.3% | -40% | 57% | -24% | 2% | -30% | 5% | 8% |  |
| C=C(C)[C@@H]1CC[C@]2(C)CC[C@]3(C)[C@H](CC[C@@H]4[C@@]5(C)CC[C@H](OC(=O)c6ccc7ccccc7n6)C(C)(C)[C@@H]5CC[C@]43C)[C@@H]12 |  |  | -7% | -5% | -27% | -8% | -20% | -30% | 11% |  |
| C=C(C)[C@@H]1CC[C@]2(C)CC[C@]3(C)[C@H](CC[C@@H]4[C@@]5(C)CC[C@H](OC(=O)Cc6ccc(OC)cc6)C(C)(C)[C@@H]5CC[C@]43C)[C@@H]12 |  |  | 20% | 24% | -25% | 4% | -8% | -5% | -4% |  |
| C=C(C)[C@@H]1CC[C@]2(C)CC[C@]3(C)[C@H](CC[C@@H]4[C@@]5(C)CC[C@H](OC(=O)/C=C/c6ccsc6)C(C)(C)[C@@H]5CC[C@]43C)[C@@H]12 | -21.5% | -16.9% |  |  |  |  |  |  |  |  |
| C=C(C)[C@@H]1CC[C@]2(C)CC[C@]3(C)[C@H](CC[C@@H]4[C@@]5(C)CC[C@H](OC(=O)CNC(=O)c6ccccc6)C(C)(C)[C@@H]5CC[C@]43C)[C@@H]12 | -23.6% | -13.8% |  |  |  |  |  |  |  |  |
| CN(C)C(=N)NC(=N)N [METFORMIN] | -26.5% | -23.5% |  |  |  |  |  |  |  |  |
| C=C(C)[C@@H]1CC[C@]2(C)CC[C@]3(C)[C@H](CC[C@@H]4[C@@]5(C)CC[C@H](OC(=O)c6ccc([N+](=O)[O-])cc6)C(C)(C)[C@@H]5CC[C@]43C)[C@@H]12 | -21.1% | -14.8% | -20% | 4% | -34% | 6% | -21% | -30% | 4% |  |
| C=C(C)[C@@H]1CC[C@]2(C)CC[C@]3(C)[C@H](CC[C@@H]4[C@@]5(C)CC[C@H](OC(=O)c6ccc(Cl)cc6)C(C)(C)[C@@H]5CC[C@]43C)[C@@H]12 | -19.6% | -17.8% | -11% | 14% | -27% | 5% | -14% | -14% | 4% |  |
| C=C(C)[C@@H]1CC[C@]2(C)CC[C@]3(C)[C@H](CC[C@@H]4[C@@]5(C)CC[C@H](OC(=O)Cc6ccccn6)C(C)(C)[C@@H]5CC[C@]43C)[C@@H]12 | -18.2% | -20.5% |  |  |  |  |  |  |  |  |
